Consider one compound from PMC8173106, “Modulating Enzyme Function via Dynamic Allostery within Biliverdin Reductase B” (Frontiers in Molecular Biosciences, 2021).

The target of this experiment is T1, human BLVRB (biliverdin reductase B) (Homo sapiens, UniProt P30043).
T1 construct: full length, 206 residues; codon-optimised, pET21b (T164S in pJ401k); N-terminal 6xHis tag removed with thrombin
T1 sequence (P30043 1-206): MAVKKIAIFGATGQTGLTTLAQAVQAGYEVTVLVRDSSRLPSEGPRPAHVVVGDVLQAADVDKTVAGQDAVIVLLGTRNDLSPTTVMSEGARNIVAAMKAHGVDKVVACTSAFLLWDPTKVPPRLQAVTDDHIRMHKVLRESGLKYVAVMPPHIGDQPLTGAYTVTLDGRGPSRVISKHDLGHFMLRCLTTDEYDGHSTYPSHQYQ
Description: isothermal titration calorimetry. The conditions noted are these: 50 mM bis-tris, pH 6.5, 50 mM NaCl, 20 C; apo enzyme. The experiment is classed as binding.

Regarding `NC(=O)c1ccc[n+]([C@@H]2O[C@H](COP(=O)(O)OP(=O)(O)OC[C@H]3O[C@@H](n4cnc5c(N)ncnc54)[C@H](OP(=O)(O)O)[C@@H]3O)[C@@H](O)[C@H]2O)c1` [NADP^+], the KD entry is “screened for their dissociation constants (KD) to NADP^+ using ITC”.
